# Literature values in paper PMC5992566 (Nanomedicine, 2018).
# Conditions: after a single parenteral dose
structure (smiles),measurement,value
"C[C@H]1CO[C@@H]2Cn3cc(C(=O)NCc4ccc(F)cc4F)c(=O)c(O)c3C(=O)N12 [Cabotegravir, cabotegravir]",Half-life,21 to 50 days
